Reference: patent US20250186423A1, “METHODS OF TREATING CANCER AND OTHER CONDITIONS WITH A MU OPIOID RECEPTOR ANTAGONIST” (priority 2022, published 2025)

Assays:
[1] = system: Human umbilical vein endothelial cells (HUVEC); assay: HUVEC cell tube formation; type: cell-based; conditions: 0-1000 nM, 18 hours, absence of exogenous opioids
Procedure: Two independent model systems were used to explore the role of MOR and endogenous opioids on angiogenesis. Human umbilical vein endothelial cells (HUVEC) in culture initiate angiogenesis through tube formation when cultured on an appropriate extracellular matrix. In a living system, the chicken egg chorioallantoic membrane assay (CAM) allows direct visualization of new blood vessel formation.
Specifically, the HUVEC cell tube formation was assessed in the presence of various doses (0-1000 nM) of three different Mu opioid receptor antagonists (axelopran, naloxegol, and methylnaltrexone (MNTX)). For this testing, the HUVEC cells were exposed to the various MOR antagonist concentrations and incubated under the following conditions: Briefly, 50 μL of Matrigel in 96 well plates was loaded to make one layer of extracellular matrix. The plate was kept for 1 hour at 37° C. HUVEC cells were seeded on top of Matrigel (0.02×10^6 cells/well) and waited for 4 h to form tube formation. […] Once tubes formed, cells were treated with increasing amounts of the test compounds (axelopran, naloxegol, and MNTX) and incubated for 18 hours. Cells were stained with Calcein AM and images were captured. The data analysis was performed using NIH imageJ software. Tube length was measure and data was plotted using prism software.

[2] = system: human microvascular endothelial cells; conditions: Feng et al. BMC Anesthesiol (2021); cited from earlier work
[3] = system: MDA-MB-231 tumor cell line; assay: Breast cancer tumor progression in the CAM assay; type: in vivo, chicken; conditions: 5 days of growth in the upper CAM; axelopran 1.0 mg/kg, pembrolizumab 2.5 mg/kg, bevacizumab 4 mg/kg
Procedure: The chicken egg chorioallantoic membrane assay (FIG. 3B) allows for the study of tumor progression of injected tumor cells in the presence of active endogenous immune surveillance, but again in the absence of an active gut microbiome.
Breast cancer cell tumor progression was assessed in the chicken egg, chorioallantoic membrane assay. The experimental timing is shown below in FIG. 9. Fertilized chicken eggs were incubated for 9 days. The MDA-MB-231 tumor cell line was cultivated in D-MEM medium supplemented with 10% FBS and 1% penicillin/streptomycin. On day E9, cells were detached with trypsin, washed with complete medium and suspended in graft medium. An inoculum of 1×10^6 cells was added onto the CAM of each egg (E9) and then eggs were randomized into groups. Tumor cells (breast cancer MDA-MB231 cells (10^6)) were then seeded on the upper CAM and further incubated for 3 three days. Test agents were then added to the same site at selected concentrations. Following five days of further incubation the growing tumor was excised, freed of CAM tissue, and weighed.
For this testing, the chicken eggs were treated with: axelopran; pembrolizumab (Pembro); axelopran+pembrolizumab; bevacizumab (Beva); axelopran+bevacizumab; pembrolizumab+bevacizumab; and axelopran+pembrolizumab+bevacizumab. Axelopran was used at dose of 1.0 mg/kg; pembrolizumab was used at a dose of 2.5 mg/kg; and bevacizumab was used at a dose of 4 mg/kg. The results of this testing are shown in FIG. 10A, 10B, 11 and Table 2-2.

M-001 melanoma cells = assay: Melanoma tumor progression in Zebra fish larvae; type: in vivo, zebrafish; conditions: Pembro +TILS, no axelopran, 72 hours of growth
Procedure: Zebra fish larvae (FIG. 3A) allow direct visualization of injected tumor cell growth and metastasis (collectively tumor progression) using fluorescently label tumor cells. At this developmental stage both the zebra fish immune system and gut microbiome are immature or lacking. Co-injection of exogenous tumor infiltrating lymphocytes (ex-TILS) allows the separate study of immune surveillance in the absence of a microbiome.
(§1) The toxicity screening period covered the first 72 hours of development. The efficacy evaluation of Axelopran was made using M-001 melanoma cells and matching TILs. Two-day old zebrafish embryos were subcutaneously injected into the perivitelline space with approximately 700 M-001 cells labelled with Dil red fluorescent dye and intravenously injected with TILs with or without pembrolizumab antibody. At the same time, MOR-antagonist test doses were added to the water. Following an additional 72 hours of further development, the fish were assayed for tumor growth (size of original tumor implant) and metastasis disseminated to the distal caudal venous plexus (CVP) three days after implantation.
The testing described above was repeated studying the effects of various doses of axelopran (0, 50 nM, 100 nM, 500 nM, and 1000 nM) alone, pembrolizumab alone, or pembrolizumab in combination with axelopran. The results of this testing are shown in FIG. 7, which depicts a summary of melanoma tumor progression (tumor size×#metastasis) in the presence of increasing axelopran concentrations or the checkpoint inhibitor pembrolizumab. For experiments using pembrolizumab, exogenous tumor-infiltrating lymphocytes (TILs) were also injected. The additional controls included the effect of TILs alone and with axelopran (500 nM) and pembrolizumab and TILs alone and with axelopran (500 nM). *=<0.05, **=<0.005, ***=<0.0005.

Zebra fish larvae = Zebra fish larvae mortality in combination therapy study; type: in vivo, zebrafish; conditions: TILs plus pembrolizumab
Procedure: as §1
For study investigating combination therapy, the Zebra fish larvae mortality was also investigated.

Row | Compound | angiogenesis (HUVEC cell tube formation) [1] | Breast cancer tumor progression index (tumor size × metastasis), Mean [3] | other results
1 | C[N@+]1(CC2CC2)CC[C@]23c4c5ccc(O)c4O[C@H]2C(=O)CC[C@@]3(O)[C@H]1C5 [methylnaltrexone] | inhibit angiogenesis |  | 
2 | C=CCN1CC[C@]23c4c5ccc(O)c4O[C@H]2[C@@H](OCCOCCOCCOCCOCCOCCOCCOC)CC[C@@]3(O)[C@H]1C5 [naloxegol] | inhibit angiogenesis |  | 
3 | C=CCN1CC[C@]23c4c5ccc(O)c4O[C@H]2C(=O)CC[C@@]3(O)[C@H]1C5 [naloxone] |  |  | opioids-induced angiogenesis and angiogenesis by itself [2]: neither antagonizes opioids-induced angiogenesis nor induces angiogenesis by itself
4 | bevacizumab: an anti-VEGF antibody |  | 0.28 fraction of negative control | 
5 | pembrolizumab: an anti-PD1 antibody, checkpoint inhibitor |  | 0.54 fraction of negative control | Melanoma tumor progression index (tumor size × metastasis), Mean (M-001 melanoma cells): 4.83; Zebra fish larvae mortality (Zebra fish larvae): 63%
